Experimental data as given in ChEMBL document CHEMBL3580586, “Novel azoles as potent and selective cannabinoid CB2 receptor agonists” (Bioorg Med Chem Lett, 2014).

Assays:
[1] = biological target: T1, Cannabinoid receptor 1 (Homo sapiens, UniProt P21554); assay: Displacement of [3H]CP55940 from human CB1 receptor expressed in CHO-K1 cell membrane by competitive displacement assay; assay type: cell membranes
[2] = biological target: T2, Cannabinoid receptor 2 (Homo sapiens, UniProt P34972); assay: Displacement of [3H]CP55940 from human CB2 receptor expressed in CHO-K1 cell membrane by competitive displacement assay; assay type: cell membranes
T2 sequence (P34972 whole entry): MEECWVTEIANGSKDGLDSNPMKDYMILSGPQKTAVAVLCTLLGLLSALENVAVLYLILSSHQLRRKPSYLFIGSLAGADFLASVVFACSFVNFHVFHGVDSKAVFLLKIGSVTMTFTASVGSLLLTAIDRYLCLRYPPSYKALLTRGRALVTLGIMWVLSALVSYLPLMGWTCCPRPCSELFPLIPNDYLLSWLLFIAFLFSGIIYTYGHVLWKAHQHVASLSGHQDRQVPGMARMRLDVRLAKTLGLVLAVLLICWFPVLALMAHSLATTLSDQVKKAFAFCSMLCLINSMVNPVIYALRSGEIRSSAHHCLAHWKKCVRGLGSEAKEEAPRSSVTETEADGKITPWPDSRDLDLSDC

[3] = organism: Homo sapiens; assay: Selectivity ratio of Ki for human CB1 receptor to Ki for human CB2 receptor
[4] = biological target: T2, Cannabinoid receptor 2; assay: Agonist activity at human CB2 receptor expressed in CHO-K1 cells assessed as inhibition of forskolin-stimulated cAMP production; assay type: functional, cell-based
[5] = biological target: T1, Cannabinoid receptor 1; assay: Agonist activity at human CB1 receptor expressed in CHO-K1 cells assessed as inhibition of forskolin-stimulated cAMP production; assay type: functional, cell-based
[6] = organism: Homo sapiens; assay: Selectivity ratio of EC50 for human CB1 receptor to EC50 for human CB2 receptor
[7] = Antioxidant activity assessed as inhibition of lipid peroxidation; assay type: physicochemical

T1 sequence (P21554 whole entry): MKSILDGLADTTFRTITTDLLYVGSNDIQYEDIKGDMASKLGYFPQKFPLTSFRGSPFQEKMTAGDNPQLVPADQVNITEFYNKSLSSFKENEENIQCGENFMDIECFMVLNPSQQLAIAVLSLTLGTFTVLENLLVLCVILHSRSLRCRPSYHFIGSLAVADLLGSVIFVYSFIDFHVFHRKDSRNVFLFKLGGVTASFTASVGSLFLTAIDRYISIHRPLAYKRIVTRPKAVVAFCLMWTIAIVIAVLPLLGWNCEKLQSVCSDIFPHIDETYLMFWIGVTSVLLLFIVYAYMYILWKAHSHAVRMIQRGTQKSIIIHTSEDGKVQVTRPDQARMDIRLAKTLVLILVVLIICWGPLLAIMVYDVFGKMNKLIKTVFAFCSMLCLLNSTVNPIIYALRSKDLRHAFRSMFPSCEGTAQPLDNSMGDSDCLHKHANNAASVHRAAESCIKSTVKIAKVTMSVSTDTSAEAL

Compound	Ki ([1]; read-out: Ki)	Ki [2]	Selectivity ratio [3]	EC50 [4]	EC50 [5]	Selectivity ratio [6]	Ki ([1]; cho-k1)	IC50 [7]
CN(C)C1(c2nc(-c3cc(C(C)(C)C)cc(C(C)(C)C)c3)cs2)CCOCC1	4710 nM	127 nM	37	–	–	–	–	–
CN1CCCCC1Cn1cc(C(=O)c2cc([N+](=O)[O-])ccc2I)c2ccccc21 (stereo not given)	2080 nM	21.8 nM	95	16.4 nM	1040 nM	63	–	–
CNC1(c2nc(-c3cc(C(C)(C)C)c(O)c(C(C)(C)C)c3)cs2)CCOCC1	2270 nM	144 nM	16	–	–	–	–	–
CC(C)(C)c1cc(-c2csc(C3(N)CCOCC3)n2)cc(C(C)(C)C)c1O	6960 nM	2700 nM	2.6	–	–	–	–	–
CC(C)(C)c1cc(-c2csc(C3(N4CCOCC4)CCOCC3)n2)cc(C(C)(C)C)c1O	–	177 nM	–	–	–	–	Not Active	–
CN(C)C1(c2nc(-c3cc(C(C)(C)C)c(O)c(C(C)(C)C)c3)cs2)CCOCC1	857 nM	29.4 nM	30	42 nM	2670 nM	64	–	500 nM
CCN(CC)C1(c2nc(-c3cc(C(C)(C)C)c(O)c(C(C)(C)C)c3)cs2)CCOCC1	3300 nM	77.4 nM	43	72 nM	4040 nM	56	–	–
CC(C)(C)c1cc(-c2csc(C3(N4CCCCC4)CCOCC3)n2)cc(C(C)(C)C)c1O	2170 nM	49.7 nM	43	40 nM	2260 nM	56	–	–
CN(C)Cc1nc(-c2cc(C(C)(C)C)c(O)c(C(C)(C)C)c2)cs1	–	6240 nM	–	–	–	–	Not Active	–
CN(C)C1(c2nc(-c3cc(C(C)(C)C)c(O)c(C(C)(C)C)c3)co2)CCOCC1	817 nM	51.6 nM	16	43.6 nM	1400 nM	32	–	–
CN(C)C1(c2nc(-c3cc(C(C)(C)C)c(O)c(C(C)(C)C)c3)cs2)CCSCC1	2340 nM	81.7 nM	29	59.1 nM	2380 nM	40	–	–
